Entries after “also recorded” stand apart in the source; their conditions may differ.
System: Japanese patients with advanced EGFR mutation-positive NSCLC
Assay: Phase I study: dose-limiting toxicities, adverse drug reactions, tolerability
Assay type: in vivo, human
Conditions: for patients who presented a DLT: Cycle 1 of dose escalation phase; for maximum tolerated dose (MTD): dose escalation phase
Protocol: This was an open-label, non-randomized, dose escalation phase I study conducted between December 14, 2015 and July 7, 2016 at 12 centers in Japan. The study was conducted in three phases (dose escalation phase, expansion phase, and extension phase), and the design is shown in Supplementary Fig. 1 (Online Resource 1). […] In patients who received the BID regimen, the administration interval was ≥10 h.
The first phase was the dose escalation phase conducted according to a 3 + 3 design, with a minimum of three patients treated at each dose level. […] The dosing rationale was derived from a 4-weeks repeated oral-dose toxicology study in monkeys. […] If none of the initial three patients treated within a dose level experienced a dose-limiting toxicity (DLT) during Cycle 1, the dose was escalated to the next level. […] If none of the three additional patients experienced DLTs after all of them completed Cycle 1, the dose was escalated to the next level. If at least one of the additional three patients developed a DLT, then the dose escalation was stopped and at least six evaluable patients were enrolled at the previous dose level to establish the maximum tolerated dose (MTD). The maximum dose level was defined as Dose Level 9 (150 mg/day). Based on safety and PK results, the dosing schedule could be changed to a BID regimen.
AEs were evaluated and graded according to the National Cancer Institute Common Terminology Criteria for Adverse Events Version 4.03. DLTs were also evaluated and defined as hematologic toxicity (Grade 4 neutropenia lasting >7 days, Grade 4 thrombocytopenia or Grade 3 thrombocytopenia associated with bleeding and requiring blood transfusion, or febrile neutropenia) or non-hematologic toxicity (Grade ≥3 nausea/vomiting uncontrolled by aggressive antiemetic treatment, Grade ≥3 diarrhea lasting >48 h and unresponsive to treatment, Grade ≥3 aspartate aminotransferase/alanine aminotransferase lasting >7 days, corneal disorder worsening by ≥1 grade, or Grade ≥3 other non-hematological toxicity).

Q: Which results are given for `C=CC(=O)N[C@H]1CCc2c(-c3cnc4ccccc4c3)c3c(N)ncnc3n2C1` [TAS-121]?
A: Urticaria, ≥G3 (12 mg/day BID, N = 5): 0 n; Venous thromboembolism, any grade (12 mg/day BID, N = 5): 0 n; Venous thromboembolism, ≥G3 (12 mg/day BID, N = 5): 0 n; Vomiting, ≥G3 (12 mg/day BID, N = 5): 0 n; WBC decreased, any grade (12 mg/day BID, N = 5): 0 n; WBC decreased, ≥G3 (12 mg/day BID, N = 5): 0 n; ALT increased, ≥G3 (12 mg/day QD, N = 3): 0 n; AST increased, ≥G3 (12 mg/day QD, N = 3): 0 n; Decreased appetite, ≥G3 (12 mg/day QD, N = 3): 0 n; Diarrhea, ≥G3 (12 mg/day QD, N = 3): 0 n; Dry skin, ≥G3 (12 mg/day QD, N = 3): 0 n; Embolic and thrombotic events, any grade (12 mg/day QD, N = 3): 2 n; Hemoglobin decreased, any grade (12 mg/day QD, N = 3): 0 n; Hemoglobin decreased, ≥G3 (12 mg/day QD, N = 3): 0 n; Hypoalbuminemia, any grade (12 mg/day QD, N = 3): 0 n; Hypoalbuminemia, ≥G3 (12 mg/day QD, N = 3): 0 n; Interstitial lung disease, any grade (12 mg/day QD, N = 3): 0 n; Interstitial lung disease, ≥G3 (12 mg/day QD, N = 3): 0 n; Malaise, ≥G3 (12 mg/day QD, N = 3): 0 n; Nausea, any grade (12 mg/day QD, N = 3): 2 n; Nausea, ≥G3 (12 mg/day QD, N = 3): 0 n; Other embolic and thrombotic events, any grade (12 mg/day QD, N = 3): 2 n; Other embolic and thrombotic events, ≥G3 (12 mg/day QD, N = 3): 0 n; Platelet count decreased, any grade (12 mg/day QD, N = 3): 2 n; Pruritus, any grade (12 mg/day QD, N = 3): 0 n; Pruritus, ≥G3 (12 mg/day QD, N = 3): 0 n; Pyrexia, ≥G3 (12 mg/day QD, N = 3): 0 n; Rash maculo-papular, any grade (12 mg/day QD, N = 3): 1 n; Rash maculo-papular, ≥G3 (12 mg/day QD, N = 3): 0 n; Rash, any grade (12 mg/day QD, N = 3): 0 n; Rash, ≥G3 (12 mg/day QD, N = 3): 0 n; Stomatitis, ≥G3 (12 mg/day QD, N = 3): 0 n; Urticaria, any grade (12 mg/day QD, N = 3): 2 n; Urticaria, ≥G3 (12 mg/day QD, N = 3): 1 n; Vomiting, ≥G3 (12 mg/day QD, N = 3): 0 n; WBC decreased, any grade (12 mg/day QD, N = 3): 0 n; WBC decreased, ≥G3 (12 mg/day QD, N = 3): 0 n; ALT increased, any grade (16 mg/day QD, N = 3): 0 n; ALT increased, ≥G3 (16 mg/day QD, N = 3): 0 n; AST increased, any grade (16 mg/day QD, N = 3): 0 n; AST increased, ≥G3 (16 mg/day QD, N = 3): 0 n; Decreased appetite, ≥G3 (16 mg/day QD, N = 3): 0 n; Diarrhea, any grade (16 mg/day QD, N = 3): 2 n; Diarrhea, ≥G3 (16 mg/day QD, N = 3): 1 n; Dry skin, any grade (16 mg/day QD, N = 3): 0 n; Dry skin, ≥G3 (16 mg/day QD, N = 3): 0 n; Embolic and thrombotic events, any grade (16 mg/day QD, N = 3): 1 n; Hemoglobin decreased, any grade (16 mg/day QD, N = 3): 1 n; Hemoglobin decreased, ≥G3 (16 mg/day QD, N = 3): 0 n; Hypoalbuminemia, any grade (16 mg/day QD, N = 3): 0 n; Hypoalbuminemia, ≥G3 (16 mg/day QD, N = 3): 0 n; Interstitial lung disease, ≥G3 (16 mg/day QD, N = 3): 1 n; Malaise, any grade (16 mg/day QD, N = 3): 0 n; Malaise, ≥G3 (16 mg/day QD, N = 3): 0 n; Nausea, any grade (16 mg/day QD, N = 3): 1 n; Nausea, ≥G3 (16 mg/day QD, N = 3): 0 n; Other embolic and thrombotic events, any grade (16 mg/day QD, N = 3): 0 n; Other embolic and thrombotic events, ≥G3 (16 mg/day QD, N = 3): 0 n; Pruritus, ≥G3 (16 mg/day QD, N = 3): 0 n; Pyrexia, ≥G3 (16 mg/day QD, N = 3): 0 n; Rash maculo-papular, any grade (16 mg/day QD, N = 3): 1 n; Rash maculo-papular, ≥G3 (16 mg/day QD, N = 3): 0 n; Rash, any grade (16 mg/day QD, N = 3): 0 n; Rash, ≥G3 (16 mg/day QD, N = 3): 0 n; Stomatitis, ≥G3 (16 mg/day QD, N = 3): 0 n; Urticaria, any grade (16 mg/day QD, N = 3): 1 n; Urticaria, ≥G3 (16 mg/day QD, N = 3): 1 n; Vomiting, ≥G3 (16 mg/day QD, N = 3): 0 n; WBC decreased, any grade (16 mg/day QD, N = 3): 2 n; WBC decreased, ≥G3 (16 mg/day QD, N = 3): 0 n; DLT (BID 8 mg/day): Interstitial lung disease^a; Number of patients who experienced a DLT (BID 8 mg/day, 6 DLT evaluable patients): 1; DLT (BID 12 mg/day): Interstitial lung disease^a; also recorded: Platelet count decreased; also recorded: Left ventricular failure; Number of patients who experienced a DLT (BID 12 mg/day, 5 DLT evaluable patients): 2; patients who presented a DLT (BID regimen): three; maximum tolerated dose (MTD) (BID regimen): 8 mg/day; Number of patients who experienced a DLT (QD 4 mg/day, 3 DLT evaluable patients): 0; Number of patients who experienced a DLT (QD 8 mg/day, 6 DLT evaluable patients): 0; DLT (QD 10 mg/day): Drug-induced liver injury; Number of patients who experienced a DLT (QD 10 mg/day, 6 DLT evaluable patients): 1; DLT (QD 12 mg/day): Platelet count decreased; also recorded: Urticaria; Number of patients who experienced a DLT (QD 12 mg/day, 3 DLT evaluable patients): 2; DLT (QD 16 mg/day): Urticaria; also recorded: Interstitial lung disease^a; Number of patients who experienced a DLT (QD 16 mg/day, 3 DLT evaluable patients): 2; patients who presented a DLT (QD regimen): Five; maximum tolerated dose (MTD) (QD regimen): 10 mg/day; AST increased, ≥G3 (Total, N = 134): 0 n; Decreased appetite, ≥G3 (Total, N = 134): 0 n; Dry skin, ≥G3 (Total, N = 134): 0 n; Hypoalbuminemia, ≥G3 (Total, N = 134): 0 n; Malaise, ≥G3 (Total, N = 134): 0 n; Nausea, ≥G3 (Total, N = 134): 0 n; Pruritus, ≥G3 (Total, N = 134): 0 n; Stomatitis, ≥G3 (Total, N = 134): 0 n; WBC decreased, ≥G3 (Total, N = 134): 0 n; treatment-related deaths (all patients, during the study): No treatment-related deaths
